# From the SangsterLogP compilation
# Assay: method code SF-AS, from DOI: 10.1002/zfch.19810211114
row,Compound,logP
1,CCCCCNC(=O)NN,-0.04
2,CCNC(=O)NN,-1.62
3,NNC(N)=O,-2.75
4,CN(C)C(=O)NN,-1.57
5,CC(C)NC(=O)NN,-1.3
6,CC(C)(C)NC(=O)NN,-0.81
7,NNC(=O)NC1CCCCC1,0.15
8,CCCCNC(=O)NN,-0.6

# More lines, now with the values ahead:
row,logP,Compound
1,-1.55,C=CCNC(=O)NN
2,-2.2,CNC(=O)NN
3,-0.22,NNC(=O)NCc1ccccc1
4,-0.84,CC(C)CNC(=O)NN
5,-0.62,CCN(CC)C(=O)NN
6,0.46,CCCCCCNC(=O)NN
7,-1.1,CCCNC(=O)NN
